{"source": "patent US9180107B2", "about": "(NANOPHARMACEUTICALS LLC, priority 2009, dated 2015)", "key": {"[1]": {"tested_on": "Human adenoid cystic carcinoma TGS112T cells", "test": "PCNA western blot (thyroid hormone-induced proliferation)", "assay_type": "cell-based", "settings": "10^−7 M, 24 h", "text": "The techniques have been described in a number of publications. (See Davis et al., 2006. Cancer Res. 66:7270-7275; Lin et al., 2007. Steroids. 72:180-187; Lin et al., 2008. Carcinogenesis. 29:62-69; and Davis et al., 2004. Circ Res. 94:1500-1506, each of which is herein incorporated by reference in its entirety). Nucleoproteins were separated on discontinuous SDS-PAGE (9% gels) and the proteins transferred by electroblotting to nitrocellulose membranes (Millipore, Bedford, Mass.). After blocking with 5% milk in Tris-buffered saline containing 0.1% Tween, the membranes were incubated with selected primary antibodies overnight. The secondary antibodies were either goat anti-rabbit IgG (1:1000, Dako, Carpenteria, Calif.) or rabbit anti-mouse IgG (1:1000, Dako), depending upon the origin of the primary antibody. Immunoreactive proteins were then detected by chemiluminescence.\n(§1) Human adenoid cystic carcinoma TGS112T cells were cultured in medium that contained 0.25% hormone-stripped serum for 2 d and then treated with 10^−7 M tetrac or nano-tetrac for 30 min prior institution of 10^−7 M T4 treatment for 24 h. Nuclear proteins were separated by SDS-PAGE followed by western blot analysis with proliferating-cell nuclear antigen (PCNA) antibody. Thyroid hormone-induced PCNA accumulation was inhibited by tetrac. (See FIG. 6A). […] (See FIG. 6A). Inhibition of thyroid hormone-induced proliferation was confirmed by inhibition by tetrac and nano-tetrac of thyroid hormone-induced accumulation and [^3H]-thymidine incorporation. (See FIG. 6B). […] (See FIG. 6B). […] The effect of nano-tetrac and tetrac on cell proliferation was examined by counting TGS112T cells which were treated daily with 10^−6 M tetrac or 10^−6 M nano-tetrac. […] (See FIG. 6C)."}, "[2]": {"tested_on": "Human adenoid cystic carcinoma TGS112T cells", "test": "[3H]-thymidine incorporation", "assay_type": "cell-based", "settings": "10^−7 M, 24 h", "experimental": "TGS112T cells were seeded in 24-well trays and exposed to 10% hormone-depleted FBS-supplemented medium for 2 d, then treated with 0.25% hormone-depleted FBS-supplemented medium prior to starting the experiments. Aliquots of cells were treated with T4, tetrac or nano-tetrac as indicated, as well as 1 μCi [^3H]-thymidine (final concentration, 13 nM) for 24 h. Cells were then washed twice with cold PBS. TCA (5%, 1 mL) was added and the plate was held at 4° C. for 30 min. The precipitate was washed twice with cold ethanol; 2% SDS (1 mL) was added to each well and the TCA-precipitable radioactivity was quantitated in a liquid scintillation counter.\nas §1"}}, "data": [{"molecule": "N[C@@H](Cc1cc(I)c(Oc2cc(I)c(O)c(I)c2)c(I)c1)C(=O)O", "note": "[T4, L-thyroxine, reference compound]", "values": [{"measurement": "Proliferation of TGS112T cells (agent alone)", "setting": "[1]", "result": "stimulated"}, {"measurement": "effect of agent alone on thymidine incorporation", "setting": "[2]", "result": "increased thymidine incorporation"}]}]}
